# Experimental data from patent US10736907B2, “Use of sugar-alcohols in tibolone compositions” (Mithra Pharmaceuticals S.A., priority 2016, dated 2020).
# Like-named read-outs stand apart in the source and are kept apart here.
# Assay: Tibolone impurities (A, B, C, total except C) in tablets by HPLC just after production and during storage (stability)
# Type: physicochemical
# Experimental: Tibolone tablets were manufactured by a conventional direct compression process. Briefly, the raw materials were weighed, sieved and homogenized. Following homogenization, the mixture was compressed into tablets. Just after production (i.e. at t=0), the tablets were analyzed for tibolone impurities by a chromatography (HPLC) method that allows a suitable separation between the peaks of impurities A, B and C (Tibolone degradation products described in the current European Pharmacopeia Monograph 1739) under the following conditions: • Equipment: HPLC system • Pre-column: Universal RP, EC 4/3 • Stationary phase: Nucleodur 100-3 C18ec Particulars' diameter: 3 μm • Length: 150 mm • Internal diameter: 4.6 mm • Mobile phase: • Solvent A: water for chromatography R • Solvent B: Acetonitrile for chromatography R • Gradient program: […]
# The tablets were packed into PVC/Aluminium blisters and stored either 1) at a temperature of 25° C. and a relative humidity of 60% (long term stability conditions for Zone II), 2) at a temperature of 40° C. and a relative humidity of 75% (accelerated stability conditions), or 3) at ambient conditions (laboratory conditions, less than 25° C., no humidity control). After 1, 2, 3 and/or 6 months of storage (up to 18 months for batches #2 and #3), the tablets were analyzed for tibolone impurities.
stabilizing effect on tibolone in the tablets (in words),SMILES,stabilizing effect on tibolone in the tablets (in words) (excipient added to tibolone tablets)
,O=C(O)CN(CCN(CC(=O)O)CC(=O)O)CC(=O)O [EDTA],does not further stabilize
additional stabilizing effect,CCCCCCCCCCCCCCCC(=O)OC[C@H](O)[C@H]1OC(=O)C(O)=C1O [ascorbyl palmitate],
